Assay results published in PubChem BioAssay (NCI).
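Results reflect a 48-hour exposure of cells in 96-well plates to compound at five concentrations. At the GI50, growth is halved. TGI: concentration producing complete growth inhibition.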 Where a SMILES comes first, the peptide text is derived from it. The star is where a group is joined. Palmitoyl = CCCCCCCCCCCCCCCC(=O)*

Legend:
Test in all cases: NCI-60 cell line screen, 48 h
[1] = test system: MDA-MB-231 breast
[2] = test system: HCT-116 colon
[3] = test system: NCI/ADR-RES ovarian
[4] = test system: OVCAR-8 ovarian
[5] = test system: UO-31 renal
[6] = test system: SK-MEL-5 melanoma
[7] = test system: EKVX NSCLC
[8] = test system: OVCAR-4 ovarian
[9] = test system: MALME-3M melanoma
[10] = test system: SNB-78 CNS
[11] = test system: M19-MEL melanoma

Row | SMILES | TGI [1] [µM] | TGI [2] [µM] | TGI [3] [µM] | TGI [4] [µM] | TGI [5] [µM] | TGI [6] [µM] | TGI [7] [µM] | TGI [8] [µM] | TGI [9] [µM] | GI50 [1] [µM] | GI50 [8] [µM] | GI50 [5] [µM] | GI50 [9] [µM] | GI50 [6] [µM] | TGI [10] [µM] | TGI [11] [µM] | GI50 [7] [µM] | GI50 [3] [µM] | GI50 [2] [µM] | GI50 [4] [µM]
1 | CC1=C(O)C2=C(C(=O)C1=O)[C@@H](C)CC[C@@H]2[C@@H](C)C/C=C/C(C)(C)O | > 100 | > 100 | > 100 | > 100 | > 100 | > 100 | – | – | – | – | – | – | – | – | – | – | – | – | – | –
2 | c1cnc2c(c1)ccc1cccnc12 | > 100 | > 100 | > 74.7 | > 100 | > 49.5 | > 34 | > 78.6 | > 88.4 | > 35.3 | – | – | – | – | – | – | – | – | – | – | –
3 | c1ccc(-c2nc(N3CCNCC3)c3oc(-c4ccccc4)nc3n2)cc1 | 3.28 | – | – | – | 2.85 | 3.2 | – | 3.19 | 3.17 | 1.76 | 1.68 | 1.49 | 1.7 | 1.77 | – | – | – | – | – | –
4 | Cn1c(-c2ccccc2)cc(-c2cccs2)c1-c1cccs1 | – | > 100 | > 100 | > 100 | > 100 | > 100 | > 100 | > 100 | > 100 | – | – | – | – | – | > 100 | > 100 | – | – | – | –
5 | CCN1CCC(O)(/C=C/c2ccccc2C)C(C(=O)/C=C/c2ccccc2C)C1 (configuration not stated) | 7.11 | 3.38 | 12.7 | 7.85 | 3 | 2.9 | 16.8 | 12.5 | 16.3 | – | – | – | – | – | – | – | – | – | – | –
6 | COc1ccc(Oc2cccc(C3C4C(=O)N(c5ccc(C)c(Cl)c5)C(=O)C4ON3C(C(N)=O)c3ccccc3)c2)cc1 (configuration not stated) | > 50 | 45.2 | – | > 50 | > 50 | 32.2 | 26.6 | > 50 | > 50 | – | – | – | – | – | – | – | – | – | – | –
7 | CC12C=CC(=O)C=C1CCC1C3CCC(O)(C(=O)CO)C3(C)CC(O)C12F (configuration not stated) | > 100 | > 100 | > 100 | > 100 | > 100 | > 100 | > 100 | > 100 | > 100 | – | – | – | – | – | > 100 | > 100 | – | – | – | –
8 | COC(=O)c1c(C)n([O-])c2cc(Cl)c(Cl)cc2[n+]1=O | 67.2 | > 100 | 49.5 | 59.3 | 46.7 | 23.4 | 67.7 | 52.5 | 31.1 | – | – | – | – | – | – | – | – | – | – | –
9 | CCOC(=O)c1c(C)n(-c2ccc(Cl)cc2)c2c1cc(O)c1[nH]c3c(c12)CCCC3 | > 100 | > 100 | > 100 | > 100 | > 100 | 49.4 | > 100 | > 100 | > 100 | – | – | – | – | – | – | – | – | – | – | –
10 | CCCC1CCC(=C2C(=O)CCC2=O)O1 (configuration not stated) | > 100 | > 100 | > 100 | > 100 | > 100 | – | > 100 | > 100 | – | – | – | – | – | – | – | – | – | – | – | –
11 | CN1C(c2ccccc2)CC(=O)C(N)C1c1ccccc1 (configuration not stated) | – | 34.2 | – | > 81.2 | > 96.3 | 33.6 | > 80.4 | > 100 | 50 | – | – | – | – | – | 69.7 | 55.5 | – | – | – | –
12 | Nc1nc(O)c2ncn([C@H]3CC[C@@H](CO)O3)c2n1 | – | > 100 | > 100 | > 100 | > 100 | > 100 | – | > 100 | > 100 | – | – | – | – | – | – | – | – | – | – | –
13 | Cc1ccc(-c2nc(N/N=C/C=C/c3ccccc3)c3ccccc3n2)cc1 | 47.9 | > 100 | > 100 | > 100 | > 100 | > 100 | 51.8 | > 100 | > 100 | – | – | – | – | – | – | – | – | – | – | –
14 | OCCN(CCO)c1ncnc2nc[nH]c12 | > 100 | > 100 | > 100 | > 100 | > 100 | > 100 | > 100 | > 100 | > 100 | – | – | – | – | – | – | – | – | – | – | –
15 | O=C(/C=C/c1ccc(Oc2cc(C(=O)/C=C/c3ccc(O)cc3)c(O)cc2O)cc1)c1ccc(O)cc1O | > 100 | 4.57 | 22.7 | 6.09 | > 100 | 17.1 | 27.9 | 28.3 | 26.6 | – | – | – | – | – | – | – | – | – | – | –
16 | COC(=O)C1=C(OC(=O)/C(=C/c2ccc(Cl)cc2)c2ccc(Cl)cc2)C(C(=O)OC)[C@]2(O)[C@@H](C(=O)OC)[C@H]1C[C@@H](c1ccccc1)[C@@H]2C(=O)OC (some centres not stated) | > 100 | > 100 | > 100 | > 100 | – | > 100 | > 100 | > 100 | – | – | – | – | – | – | – | – | – | – | – | –
17 | C/C(=N/N=C(\[O-])c1ccncc1)C(F)(F)F.C/C(=N\N=C(/[O-])c1ccncc1)C(F)(F)F.[Ni+2] | – | – | > 1 | – | – | – | > 1 | – | > 1 | – | – | – | > 1 | – | – | – | > 1 | > 1 | – | –
18 | CCCCCCCCCCCCCCCC(=O)N1CCCC1C(=O)NCC(=O)NC(Cc1ccccc1)C(=O)NC(C)C(=O)NC(CO)C(=O)NC(Cc1ccc(O)cc1)C(=O)NC(CCCCN)C(=O)NC(CC(C)C)C(=O)NC(CCCN=C(N)N)C(=O)N1CCCC1C(=O)NCC(N)=O (configuration not stated) (Palmitoyl-PGFASYKLRPG-NH2; configuration not given here) | 26.5 | 24.9 | 35 | 51.9 | 52.1 | > 100 | 52.1 | 92.6 | 47.3 | 12.5 | 33.8 | 21.9 | 18 | 33.4 | – | – | 20.1 | 16.2 | 12.1 | 24
19 | COc1cc(C(C)O)c[n+](Cc2ccccc2)c1 (configuration not stated) | – | > 100 | – | > 31.6 | > 100 | > 100 | > 100 | > 100 | > 100 | – | – | – | – | – | > 100 | > 100 | – | – | – | –
20 | O=c1c2cc(S(=O)(=O)O)ccc2nc(COc2ccc(Oc3ccc(Cl)cc3Cl)cc2)n1-c1ccc(Oc2ccc(Cl)cc2)cc1Cl | – | 58.4 | 39.5 | 44.3 | 27 | 34.6 | 44.5 | 73.6 | 85.2 | – | – | – | – | – | – | – | – | – | – | –
21 | C[N+](C)(C)c1ncnc2c1ncn2C1CC(O)C(CO)O1 (configuration not stated) | > 100 | > 100 | > 100 | > 100 | > 100 | > 100 | > 100 | > 100 | > 100 | – | – | – | – | – | – | – | – | – | – | –
22 | Nc1[nH]c(=O)nc2c1cnn2C1CCCCO1 (configuration not stated) | – | > 100 | – | > 100 | > 100 | > 100 | > 100 | > 100 | > 100 | – | – | – | – | – | > 100 | – | – | – | – | –
23 | CC(C)C(C(=O)O)N1C(=O)c2ccccc2C1=O (configuration not stated) | > 100 | > 100 | > 100 | > 100 | – | > 100 | > 100 | > 100 | > 100 | – | – | – | – | – | – | – | – | – | – | –
24 | COC(=O)/C=C(\CC(=O)OC)n1nnnc1[C@@H]1C[C@H](COC(c2ccccc2)(c2ccccc2)c2ccccc2)[C@H]2OC(C)(C)O[C@H]21 | > 100 | > 100 | – | > 100 | > 100 | > 100 | > 100 | > 100 | > 100 | – | – | – | – | – | – | – | – | – | – | –
